ChEMBL document CHEMBL4507259 (2021)

Assays:
D(3) dopamine receptor = D(3) dopamine receptor (Homo sapiens, UniProt P35462); assay: GPCRScan assay: inhibition of D3; set-up: radioligand conc. used [nm] 0.5 – 1.8, parental cells HEKT
[1] = target: Cholecystokinin receptor type A (Homo sapiens) (UniProt P32238); assay: CCK1 (CCKA) (h) CEREP ligand profiling; conditions: filed as agonist, Compound concentration 10.0 uM
[2] = target: Serine/threonine-protein kinase PAK 2 (Homo sapiens) (UniProt Q13177); conditions: Compound concentration 1000.0 nM
[3] = target: Cyclin-dependent kinase 9 (Homo sapiens) (UniProt P50750); conditions: Compound concentration 1000.0 nM
[4] = target: T1, 5-hydroxytryptamine receptor 1A (Homo sapiens) (UniProt P08908); assay: 5-HT1A (h) CEREP ligand profiling; conditions: filed as agonist, Compound concentration 10.0 uM
T1 sequence (whole entry): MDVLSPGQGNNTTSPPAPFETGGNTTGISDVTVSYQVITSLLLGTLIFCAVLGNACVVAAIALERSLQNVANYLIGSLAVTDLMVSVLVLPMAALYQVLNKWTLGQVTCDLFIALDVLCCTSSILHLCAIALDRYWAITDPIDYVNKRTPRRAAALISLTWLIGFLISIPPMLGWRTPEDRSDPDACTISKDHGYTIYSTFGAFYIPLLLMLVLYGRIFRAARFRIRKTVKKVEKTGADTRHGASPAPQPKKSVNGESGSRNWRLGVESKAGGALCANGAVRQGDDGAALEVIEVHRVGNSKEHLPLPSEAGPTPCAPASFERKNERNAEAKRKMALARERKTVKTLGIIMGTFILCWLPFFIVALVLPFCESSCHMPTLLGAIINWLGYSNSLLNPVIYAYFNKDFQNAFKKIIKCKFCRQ

[5] = target: Homeodomain-interacting protein kinase 1 (Homo sapiens) (UniProt Q86Z02); conditions: Compound concentration 1000.0 nM
[6] = target: Tyrosine-protein kinase ITK/TSK (Homo sapiens) (UniProt Q08881); conditions: Compound concentration 1000.0 nM
[7] = target: GABA-A receptor; alpha-1/beta-2/gamma-2 (Homo sapiens) (UniProt P14867+P47870+P18507); assay: GABAA1 (h) (alpha 1,beta 2,gamma 2) CEREP ligand profiling; format: protein-complex assay; conditions: filed as agonist, Compound concentration 10.0 uM
[8] = target: Neuropeptide Y receptor type 1 (Homo sapiens) (UniProt P25929); assay: Y1 (h) CEREP ligand profiling; conditions: filed as agonist, Compound concentration 10.0 uM
[9] = target: Cyclin-dependent kinase 15 (Homo sapiens) (UniProt Q96Q40); conditions: Compound concentration 1000.0 nM
[10] = target: Insulin-like growth factor 1 receptor (Homo sapiens) (UniProt P08069); conditions: Compound concentration 1000.0 nM
Malme-3M = assay: Malme3M cell line Proliferation assay; format: functional, Homo sapiens; conditions: Compound concentration 10 uM; time 5 day
OCI-Ly18 = assay: OCI Ly18 cell line Proliferation assay; format: functional, Homo sapiens; conditions: Compound concentration 10 uM; time 3 day
SK-MEL-5 = assay: SKMEL5 cell line Proliferation assay; format: functional, Homo sapiens; conditions: Compound concentration 10 uM; time 5 day
NCI-H510A = assay: H510A cell line Proliferation assay; format: functional, Homo sapiens; conditions: Compound concentration 10 uM; time 4 day
CAL-120 = assay: CAL_120 cell line Proliferation assay; format: functional, Homo sapiens; conditions: Compound concentration 10 uM; time 5 day
RCK8 = assay: RCK8 cell line Proliferation assay; format: functional, Homo sapiens; conditions: Compound concentration 10 uM; time 3 day
[11] = target: Histone acetyltransferase type B catalytic subunit (Homo sapiens) (UniProt O14929); assay: HAT1 (HAT) CEREP ligand profiling; conditions: Compound concentration 10.0 uM
HCC4006 = assay: HCC4006 cell line Proliferation assay; format: functional, Homo sapiens; conditions: Compound concentration 10 uM; time 3 day
JVM-2 = assay: JVM-2 cell line Proliferation assay; format: functional, Homo sapiens; conditions: Compound concentration 10 uM; time 3 day
Ramos = assay: Ramos cell line Proliferation assay; format: functional, Homo sapiens; conditions: Compound concentration 10 uM; time 3 day
THP-1 = assay: THP-1 cell line Proliferation assay; format: functional, Homo sapiens; conditions: Compound concentration 10 uM; time 3 day
HCC1599 = assay: HCC1599 cell line Proliferation assay; format: functional, Homo sapiens; conditions: Compound concentration 10 uM; time 5 day
NCI-H211 = assay: H211 cell line Proliferation assay; format: functional, Homo sapiens; conditions: Compound concentration 10 uM; time 4 day
NCI-H1048 = assay: H1048 cell line Proliferation assay; format: functional, Homo sapiens; conditions: Compound concentration 10 uM; time 4 day
[12] = target: Histone acetyltransferase KAT6A (Homo sapiens) (UniProt Q92794); assay: MYST3 (HAT) CEREP ligand profiling; conditions: Compound concentration 10.0 uM
Calu-6 = assay: Calu 6 cell line Proliferation assay; format: functional, Homo sapiens; conditions: Compound concentration 10 uM; time 3 day
NCI-H128 = assay: H128 cell line Proliferation assay; format: functional, Homo sapiens; conditions: Compound concentration 10 uM; time 4 day
NCI-H1417 = assay: H1417 cell line Proliferation assay; format: functional, Homo sapiens; conditions: Compound concentration 10 uM; time 4 day
NCI-H838 = assay: H838 cell line Proliferation assay; format: functional, Homo sapiens; conditions: Compound concentration 10 uM; time 3 day
OCI-Ly3 = assay: OCI Ly3 cell line Proliferation assay; format: functional, Homo sapiens; conditions: Compound concentration 10 uM; time 3 day
Raji = assay: Raji cell line Proliferation assay; format: functional, Homo sapiens; conditions: Compound concentration 10 uM; time 3 day
SU-DHL-8 = assay: SuDHL8 cell line Proliferation assay; format: functional, Homo sapiens; conditions: Compound concentration 10 uM; time 3 day
A-375 = assay: A375 cell line Proliferation assay; format: functional, Homo sapiens; conditions: Compound concentration 10 uM; time 5 day
Pfeiffer = assay: Pfeiffer cell line Proliferation assay; format: functional, Homo sapiens; conditions: Compound concentration 10 uM; time 3 day
[13] = target: Histone acetyltransferase KAT6B (Homo sapiens) (UniProt Q8WYB5); assay: MYST4 (HAT) CEREP ligand profiling; conditions: Compound concentration 10.0 uM
HCC2935 = assay: HCC2935 cell line Proliferation assay; format: functional, Homo sapiens; conditions: Compound concentration 10 uM; time 3 day
[14] = target: Beta-2 adrenergic receptor (Homo sapiens) (UniProt P07550); assay: beta 2 (h) CEREP ligand profiling; conditions: filed as agonist, Compound concentration 10.0 uM
CHL-1 = assay: CHL1 cell line Proliferation assay; format: functional, Homo sapiens; conditions: Compound concentration 10 uM; time 5 day
SU-DHL-2 = assay: SuDHL2 cell line Proliferation assay; format: functional, Homo sapiens; conditions: Compound concentration 10 uM; time 3 day
BJAB = assay: BJAB cell line Proliferation assay; format: functional, Homo sapiens; conditions: Compound concentration 10 uM; time 3 day
OCI-AML-5 = assay: OCI-AML5 cell line Proliferation assay; format: functional, Homo sapiens; conditions: Compound concentration 10 uM; time 3 day
SUD4 = assay: SuDHL4 cell line Proliferation assay; format: functional, Homo sapiens; conditions: Compound concentration 10 uM; time 3 day
NCI-H522 = assay: H522 cell line Proliferation assay; format: functional, Homo sapiens; conditions: Compound concentration 10 uM; time 3 day
Hs 695T = assay: Hs695T cell line Proliferation assay; format: functional, Homo sapiens; conditions: Compound concentration 10 uM; time 5 day
SET-2 = assay: SET-2 cell line Proliferation assay; format: functional, Homo sapiens; conditions: Compound concentration 10 uM; time 3 day
EMT6 = assay: EMT6 (mouse) cell line Proliferation assay; format: functional; conditions: Compound concentration 10 uM; time 5 day
NCI-H1836 = assay: H1836 cell line Proliferation assay; format: functional, Homo sapiens; conditions: Compound concentration 10 uM; time 4 day
U-2940 = assay: U2940 cell line Proliferation assay; format: functional, Homo sapiens; conditions: Compound concentration 10 uM; time 3 day
HCC38 = assay: HCC38 cell line Proliferation assay; format: functional, Homo sapiens; conditions: Compound concentration 10 uM; time 5 day
DOHH-2 = assay: DoHH2 cell line Proliferation assay; format: functional, Homo sapiens; conditions: Compound concentration 10 uM; time 3 day
[15] = target: 5-hydroxytryptamine receptor 2B (Homo sapiens, UniProt P41595); assay: GPCRScan assay: inhibition of 5-HT2B; set-up: radioligand conc. used [nm] 1.0 – 2.0, parental cells stable HEK
KARPAS-422 = assay: Karpas422 cell line Proliferation assay; format: functional, Homo sapiens; conditions: Compound concentration 10 uM; time 3 day
HL-60 = assay: HL-60 cell line Proliferation assay; format: functional, Homo sapiens; conditions: Compound concentration 10 uM; time 3 day
[16] = target: Calcitonin-gene-related peptide receptor, CALCRL/RAMP1 (Homo sapiens) (UniProt O60894+Q16602); assay: CGRP (h) CEREP ligand profiling; format: protein-complex assay; conditions: filed as agonist, Compound concentration 10.0 uM
[17] = target: Sodium-dependent noradrenaline transporter (Homo sapiens) (UniProt P23975); conditions: Compound concentration 10.0 uM
Sequence of Sodium-dependent noradrenaline transporter (Homo sapiens) (P23975 whole entry): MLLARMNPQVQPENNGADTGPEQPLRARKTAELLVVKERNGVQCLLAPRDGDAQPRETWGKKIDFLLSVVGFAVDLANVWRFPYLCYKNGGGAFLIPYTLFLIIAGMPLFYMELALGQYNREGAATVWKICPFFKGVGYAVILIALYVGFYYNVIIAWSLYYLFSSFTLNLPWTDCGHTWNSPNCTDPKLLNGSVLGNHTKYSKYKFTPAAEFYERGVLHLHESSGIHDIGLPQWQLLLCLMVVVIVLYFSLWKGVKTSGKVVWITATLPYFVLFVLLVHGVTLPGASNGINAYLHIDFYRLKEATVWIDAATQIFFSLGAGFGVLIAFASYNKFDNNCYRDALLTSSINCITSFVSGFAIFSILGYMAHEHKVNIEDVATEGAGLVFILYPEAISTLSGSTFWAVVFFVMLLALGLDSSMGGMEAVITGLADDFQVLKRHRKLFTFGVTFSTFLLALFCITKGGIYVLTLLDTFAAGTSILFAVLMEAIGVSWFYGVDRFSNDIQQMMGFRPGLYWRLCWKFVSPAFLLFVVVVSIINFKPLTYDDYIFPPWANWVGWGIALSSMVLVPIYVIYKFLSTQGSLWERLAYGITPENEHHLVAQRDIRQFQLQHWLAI

Sequence of 5-hydroxytryptamine receptor 2B (P41595 whole entry): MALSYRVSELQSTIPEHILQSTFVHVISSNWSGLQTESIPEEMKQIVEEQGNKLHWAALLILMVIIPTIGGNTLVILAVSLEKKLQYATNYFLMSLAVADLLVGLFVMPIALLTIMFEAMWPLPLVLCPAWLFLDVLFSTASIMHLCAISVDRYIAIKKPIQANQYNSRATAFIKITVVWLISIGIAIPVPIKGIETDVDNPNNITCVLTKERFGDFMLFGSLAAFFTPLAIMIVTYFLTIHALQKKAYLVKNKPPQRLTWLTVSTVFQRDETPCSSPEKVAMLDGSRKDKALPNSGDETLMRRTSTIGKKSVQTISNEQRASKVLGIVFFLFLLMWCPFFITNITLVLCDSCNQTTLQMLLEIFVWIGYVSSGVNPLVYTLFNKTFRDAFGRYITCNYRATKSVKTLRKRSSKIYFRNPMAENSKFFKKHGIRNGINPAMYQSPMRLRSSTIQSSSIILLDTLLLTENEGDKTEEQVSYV
Sequence of D(3) dopamine receptor (P35462 whole entry): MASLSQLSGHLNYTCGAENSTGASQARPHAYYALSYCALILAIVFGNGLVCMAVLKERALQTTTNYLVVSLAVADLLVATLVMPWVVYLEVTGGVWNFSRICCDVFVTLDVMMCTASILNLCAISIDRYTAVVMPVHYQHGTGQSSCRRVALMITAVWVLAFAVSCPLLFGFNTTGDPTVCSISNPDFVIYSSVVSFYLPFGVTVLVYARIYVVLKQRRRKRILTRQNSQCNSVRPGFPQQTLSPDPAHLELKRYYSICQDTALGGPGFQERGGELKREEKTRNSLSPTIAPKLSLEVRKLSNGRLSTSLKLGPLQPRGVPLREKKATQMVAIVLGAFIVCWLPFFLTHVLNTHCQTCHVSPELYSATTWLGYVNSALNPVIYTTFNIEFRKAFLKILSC
Sequence of Homeodomain-interacting protein kinase 1 (Homo sapiens) (Q86Z02 whole entry, looked up): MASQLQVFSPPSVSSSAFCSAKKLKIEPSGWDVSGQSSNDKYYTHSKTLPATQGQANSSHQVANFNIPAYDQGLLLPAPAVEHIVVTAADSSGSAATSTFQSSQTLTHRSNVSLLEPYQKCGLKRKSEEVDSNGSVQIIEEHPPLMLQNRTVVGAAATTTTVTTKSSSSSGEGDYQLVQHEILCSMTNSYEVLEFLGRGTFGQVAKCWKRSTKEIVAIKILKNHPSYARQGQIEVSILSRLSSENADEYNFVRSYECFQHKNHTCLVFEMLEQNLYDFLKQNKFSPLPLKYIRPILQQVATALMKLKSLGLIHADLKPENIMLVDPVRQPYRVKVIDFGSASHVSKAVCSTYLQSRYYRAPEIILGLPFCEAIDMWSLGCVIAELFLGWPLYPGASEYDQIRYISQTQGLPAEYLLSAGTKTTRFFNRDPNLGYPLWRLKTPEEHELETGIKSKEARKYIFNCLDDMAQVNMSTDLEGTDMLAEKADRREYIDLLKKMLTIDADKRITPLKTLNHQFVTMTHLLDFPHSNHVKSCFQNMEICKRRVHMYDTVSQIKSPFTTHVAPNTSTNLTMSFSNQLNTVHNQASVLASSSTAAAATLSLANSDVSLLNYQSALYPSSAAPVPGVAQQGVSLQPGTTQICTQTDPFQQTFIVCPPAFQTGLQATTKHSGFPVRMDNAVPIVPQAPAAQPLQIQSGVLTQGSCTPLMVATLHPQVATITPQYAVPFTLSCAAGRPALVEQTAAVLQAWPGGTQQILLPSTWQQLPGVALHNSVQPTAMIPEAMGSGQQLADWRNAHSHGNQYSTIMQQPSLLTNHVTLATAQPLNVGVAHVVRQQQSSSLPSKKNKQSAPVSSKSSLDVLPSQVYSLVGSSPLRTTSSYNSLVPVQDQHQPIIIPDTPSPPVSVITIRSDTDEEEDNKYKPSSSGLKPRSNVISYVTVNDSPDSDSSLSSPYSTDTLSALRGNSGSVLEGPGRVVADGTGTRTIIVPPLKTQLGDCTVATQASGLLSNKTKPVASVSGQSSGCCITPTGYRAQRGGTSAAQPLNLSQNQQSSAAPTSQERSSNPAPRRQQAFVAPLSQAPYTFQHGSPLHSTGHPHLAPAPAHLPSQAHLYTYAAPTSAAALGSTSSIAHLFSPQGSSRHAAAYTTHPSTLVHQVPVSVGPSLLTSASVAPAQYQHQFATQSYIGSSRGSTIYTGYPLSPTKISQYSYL
Sequence of Histone acetyltransferase KAT6A (Homo sapiens) (Q92794 whole entry, looked up): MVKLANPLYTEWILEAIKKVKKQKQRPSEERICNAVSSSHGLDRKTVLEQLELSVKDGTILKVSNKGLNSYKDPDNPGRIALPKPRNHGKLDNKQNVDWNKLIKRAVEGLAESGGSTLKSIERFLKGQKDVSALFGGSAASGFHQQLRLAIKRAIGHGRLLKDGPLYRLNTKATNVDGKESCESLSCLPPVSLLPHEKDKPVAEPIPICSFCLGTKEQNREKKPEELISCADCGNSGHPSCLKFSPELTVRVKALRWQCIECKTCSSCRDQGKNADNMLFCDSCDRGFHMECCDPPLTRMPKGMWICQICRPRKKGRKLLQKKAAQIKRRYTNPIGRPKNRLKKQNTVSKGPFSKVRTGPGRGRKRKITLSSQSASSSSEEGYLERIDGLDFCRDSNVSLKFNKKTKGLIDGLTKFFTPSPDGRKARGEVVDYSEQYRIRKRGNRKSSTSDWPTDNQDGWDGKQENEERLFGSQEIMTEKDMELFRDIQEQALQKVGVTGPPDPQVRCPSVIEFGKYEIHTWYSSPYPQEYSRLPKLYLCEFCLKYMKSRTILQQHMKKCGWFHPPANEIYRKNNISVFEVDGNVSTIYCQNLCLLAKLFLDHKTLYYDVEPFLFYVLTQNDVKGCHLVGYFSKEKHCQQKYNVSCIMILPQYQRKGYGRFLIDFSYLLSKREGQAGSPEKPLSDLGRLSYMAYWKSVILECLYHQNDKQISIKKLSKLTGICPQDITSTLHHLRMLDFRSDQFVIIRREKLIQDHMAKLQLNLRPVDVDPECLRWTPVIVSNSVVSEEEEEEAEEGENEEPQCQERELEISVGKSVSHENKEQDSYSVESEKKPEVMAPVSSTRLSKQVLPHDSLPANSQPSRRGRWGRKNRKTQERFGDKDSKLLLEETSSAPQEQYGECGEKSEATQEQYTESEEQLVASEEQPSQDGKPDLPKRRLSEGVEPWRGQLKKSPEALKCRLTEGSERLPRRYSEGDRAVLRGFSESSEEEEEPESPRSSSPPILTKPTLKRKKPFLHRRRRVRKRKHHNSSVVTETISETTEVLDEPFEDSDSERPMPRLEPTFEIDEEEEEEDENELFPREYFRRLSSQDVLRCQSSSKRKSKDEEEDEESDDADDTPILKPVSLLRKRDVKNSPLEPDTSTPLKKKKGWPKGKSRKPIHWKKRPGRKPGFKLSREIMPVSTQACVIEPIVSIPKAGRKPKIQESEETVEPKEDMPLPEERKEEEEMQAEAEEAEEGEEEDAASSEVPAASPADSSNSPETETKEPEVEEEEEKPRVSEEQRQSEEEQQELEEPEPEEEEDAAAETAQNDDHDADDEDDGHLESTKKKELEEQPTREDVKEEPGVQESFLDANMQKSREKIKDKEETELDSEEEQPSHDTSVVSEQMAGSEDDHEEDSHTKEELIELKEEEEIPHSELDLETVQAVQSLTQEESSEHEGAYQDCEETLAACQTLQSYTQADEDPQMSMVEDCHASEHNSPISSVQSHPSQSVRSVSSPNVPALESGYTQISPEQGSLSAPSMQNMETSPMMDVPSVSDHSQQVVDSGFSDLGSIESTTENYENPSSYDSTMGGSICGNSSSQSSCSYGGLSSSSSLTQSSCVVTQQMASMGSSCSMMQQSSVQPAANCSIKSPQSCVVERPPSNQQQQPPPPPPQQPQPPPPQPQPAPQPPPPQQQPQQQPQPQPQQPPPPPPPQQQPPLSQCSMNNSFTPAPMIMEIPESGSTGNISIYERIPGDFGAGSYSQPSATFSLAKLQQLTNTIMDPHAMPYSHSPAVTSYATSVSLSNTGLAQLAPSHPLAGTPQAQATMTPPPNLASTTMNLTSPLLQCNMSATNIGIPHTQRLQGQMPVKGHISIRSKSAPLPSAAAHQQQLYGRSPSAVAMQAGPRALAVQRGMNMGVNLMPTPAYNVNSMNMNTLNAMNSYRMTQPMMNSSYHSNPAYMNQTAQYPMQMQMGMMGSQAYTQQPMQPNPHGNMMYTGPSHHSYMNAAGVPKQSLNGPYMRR
Sequence of Cyclin-dependent kinase 9 (Homo sapiens) (P50750 whole entry): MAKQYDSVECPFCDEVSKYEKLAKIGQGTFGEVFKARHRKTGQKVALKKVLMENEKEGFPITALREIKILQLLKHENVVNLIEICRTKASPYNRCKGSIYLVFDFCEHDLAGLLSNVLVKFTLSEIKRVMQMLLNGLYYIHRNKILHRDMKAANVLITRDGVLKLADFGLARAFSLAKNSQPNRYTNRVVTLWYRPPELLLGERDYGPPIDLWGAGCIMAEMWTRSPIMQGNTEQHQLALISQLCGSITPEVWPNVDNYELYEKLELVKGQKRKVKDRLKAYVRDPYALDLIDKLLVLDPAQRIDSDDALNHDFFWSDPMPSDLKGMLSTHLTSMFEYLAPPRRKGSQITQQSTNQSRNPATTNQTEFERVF

## CNC(=O)Nc1ccc2c(c1)[C@@]1(CC2)OC(=O)N(CC(=O)N(Cc2ccc(F)cc2)[C@@H](C)C(F)(F)F)C1=O [A-486]
D(3) dopamine receptor; read-out: Ki
  Ki: 1140 nM
D(3) dopamine receptor; read-out: pKi (converted)
  Ki: 1100 nM
[1]
  inhibition: 1%
[2]
  residual activity: 94%
[3]
  residual activity: 91%
[4]
  inhibition: 8%
[5]
  residual activity: 78%
[6]
  residual activity: 92%
[7]
  inhibition: 0%
[8]
  inhibition: -10%
[9]
  residual activity: 100%
[10]
  residual activity: 100%

## CNC(=O)Nc1ccc2c(c1)CC[C@@]21OC(=O)N(CC(=O)N(Cc2ccc(F)cc2)[C@@H](C)C(F)(F)F)C1=O [A-485]
Malme-3M
  Cell Proliferation EC50: 2687 nM
OCI-Ly18
  Cell Proliferation EC50: 321.3 nM
SK-MEL-5
  Cell Proliferation EC50: 907 nM
NCI-H510A
  Cell Proliferation EC50: >10000 nM
CAL-120
  Cell Proliferation EC50: >10000 nM
RCK8
  Cell Proliferation EC50: 589.3 nM
[11]
  inhibition: -1.9%
HCC4006
  Cell Proliferation EC50: 4640 nM
JVM-2
  Cell Proliferation EC50: >10000 nM
Ramos
  Cell Proliferation EC50: 934 nM
THP-1
  Cell Proliferation EC50: 3510 nM
HCC1599
  Cell Proliferation EC50: 4852.9 nM
NCI-H211
  Cell Proliferation EC50: 1500 nM
NCI-H1048
  Cell Proliferation EC50: >10000 nM
[12]
  inhibition: 5.6%
Calu-6
  Cell Proliferation EC50: 8573 nM
NCI-H128
  Cell Proliferation EC50: >10000 nM
NCI-H1417
  Cell Proliferation EC50: >10000 nM
NCI-H838
  Cell Proliferation EC50: 6990 nM
OCI-Ly3
  Cell Proliferation EC50: 489.2 nM
Raji
  Cell Proliferation EC50: 463.1 nM
SU-DHL-8
  Cell Proliferation EC50: 540 nM
A-375
  Cell Proliferation EC50: >10000 nM
Pfeiffer
  Cell Proliferation EC50: 858.6 nM
[13]
  inhibition: 1.4%
HCC2935
  Cell Proliferation EC50: >10000 nM
[14]
  inhibition: 8%
CHL-1
  Cell Proliferation EC50: 366 nM
SU-DHL-2
  Cell Proliferation EC50: 953.8 nM
BJAB
  Cell Proliferation EC50: 281.3 nM
OCI-AML-5
  Cell Proliferation EC50: 4860 nM
SUD4
  Cell Proliferation EC50: 720.4 nM
NCI-H522
  Cell Proliferation EC50: 3517 nM
Hs 695T
  Cell Proliferation EC50: 3571 nM
SET-2
  Cell Proliferation EC50: 2010 nM
EMT6
  Cell Proliferation EC50: 498.9 nM
NCI-H1836
  Cell Proliferation EC50: >10000 nM
U-2940
  Cell Proliferation EC50: 1332 nM
HCC38
  Cell Proliferation EC50: >10000 nM
DOHH-2
  Cell Proliferation EC50: 751.2 nM
[15]; read-out: Ki
  Ki: 1290 nM
[15]; read-out: pKi (converted)
  Ki: 1200 nM
KARPAS-422
  Cell Proliferation EC50: 245.4 nM
HL-60
  Cell Proliferation EC50: >10000 nM
[16]
  inhibition: 0%
[17]
  inhibition: -3.76%
